US20230123334A1, “AMINO LIPID COMPOUND, PREPARATION METHOD THEREFOR, AND APPLICATION THEREOF” (SHENZHEN SHENXIN BIOTECHNOLOGY CO., LTD., priority 2020, published 2023)

Experiments:
[1] = tested on: HEK293 cells; assay: Preliminary screening as DNA vectors, GFP transfection of HEK293 cells; type: cell-based; settings: HEK293 cells; lipid/DOPE liposome with 75 ng plasmid DNA (psin-EGFP-IRES-Puro); number of cells expressing GFP divided by total number of nuclei (Hoechst)
How it was run: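 Lipid + DOPE liposomes (NaOAc, pH 5.6) complexed w/ 75 ng psin-EGFP-IRES-Puro, 30 min RT; added to 3-5×10^4 HEK293/well, 37° C. Hoechst 0.2 μg/mL at 20-24 h, imaged after further 20-24 h. Efficiency = GFP+ cells / total nuclei.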

[2] = tested on: HEK293 cells; assay: Preliminary screening as mRNA vectors, EGFP mRNA transfection of HEK293 cells; type: cell-based; settings: HEK293 cells, 96-well plates, EGFP mRNA 50 ng per well; percentage of GFP fluorescent cells relative to total number of cells (Hoechst)
How it was run: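 Each well of HEK293 cells received 50 ng of EGFP mRNA. Efficiency was expressed as percent GFP-expressing cells over Hoechst-defined total cell number.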

| Compound | Absolute DNA transfection efficiency in HEK293 cells [1] | Absolute mRNA transfection efficiency in HEK293 cells [2] |
| --- | --- | --- |
| CCCCCCCCCCCCCCCCCCSc1nc(NCCCN(C)C)nc(SCCCCCCCCCCC)n1 [Compound S11S18D6] | 3.6% | 6.0% |
| CCCCCCCNc1nc(NCCCCCCC)nc(NCCN(C)C)n1 [Compound N7N7D1] | 0.0% | 0.0% |
| CCCCCCCCCCCCCCCCCCSc1nc(NCCCN2CCOCC2)nc(SCCCCCCCCCC)n1 [Compound S10S18D8] | 13.7% | 8.0% |
| CCCCCCNc1nc(NCCCCCC)nc(NCCN2CCOCC2)n1 [Compound N6N6D2] | 0.0% | 0.0% |
| CCCCCCCCCCCCCCCCCCSc1nc(NCCN2CCCC2)nc(SCCCCCCCCCCCCCCCCCC)n1 [Compound S18S18D3] | 0.1% | 0.1% |
| CCCCCCCCCCCCCCSc1nc(NCCN(CC)CC)nc(SCCCCCCCCCCCCCC)n1 [Compound S14S14D7] | 2.3% | 2.8% |
| CCCCCCCCNc1nc(NCCCCCC)nc(NCCCN(C)C)n1 [Compound N6N8D6] | 0.1% | 0.0% |
| CCCCCCCCCCCCCCCSc1nc(NCCN(CC)CC)nc(SCCCCCCCCCCCC)n1 [Compound S12S15D7] | 1.4% | 0.0% |
| CCCCCCCCCCCCCNc1nc(NCCCCCCCCCCC)nc(NCCCN2CCN(C)CC2)n1 [Compound N11N13D9] | 0.0% | 7.1% |
| CCCCCCCCCCCCCCCCCCNc1nc(NCCCCCCCCCCC)nc(NCCCN(C)C)n1 [Compound N11N18D6] | 0.4% | 0.0% |
| CCCCCCCCCCCCCCCSc1nc(NCCN2CCOCC2)nc(SCCCCCCCCCC)n1 [Compound S10S15D2] | 7.7% | 0.7% |
| CCCCCCCCCCCCCNc1nc(NCCN2CCOCC2)nc(N(CCCCCCCCCCCC)CCCCCCCCCCCC)n1 [N13^2N12D2] | 0.1% | 0.5% |
| CCCCCCCCCCCNc1nc(NCCCCCC)nc(NCCN(C)C)n1 [Compound N6N11D1] | 0.0% | 0.1% |
| CCCCCCCCCCCCCNc1nc(NCCCCCCC)nc(NCCN(C)C)n1 [Compound N7N13D1] | 1.0% | 0.4% |
| CCCCCCCCCNc1nc(NCCCCCCCC)nc(NCCN2CCOCC2)n1 [Compound N8N9D2] | 0.0% | 0.3% |
| CCCCCCCCCCCCCCCCNc1nc(NCCCCCCCC)nc(NCCN2CCOCC2)n1 [Compound N8N16D2] | 0.8% | 0.2% |
| CCCCCCCCCCCCCCCCCCNc1nc(NCCCCCC)nc(NCCN(CC)CC)n1 [Compound N6N18D7] | 0.9% | 0.3% |
| CCCCCCCCCCCCSc1nc(NCCCN2CCOCC2)nc(SCCCCCCCCCCCC)n1 [Compound S12S12D8] | 3.4% | 3.8% |
| CCCCCCCCCCCCCCCCCCNc1nc(NCCCCCCCC)nc(NCC2CCN(C)CC2)n1 [Compound N8N18D10] | 1.4% | 5.0% |
| CCCCCCCCCCCCCCCCCCNc1nc(NCCCCCCCCCCCCC)nc(NCC2CCN(C)CC2)n1 [Compound N13N18D10] | 0.5% | 6.1% |
| CCCCCCCCNc1nc(NCCCCCCC)nc(NCCN2CCCC2)n1 [Compound N7N8D3] | 0.5% | 3.7% |
| CCCCCCCCCCCCCCCCCCNc1nc(NCCCCCCCCCCCCCCCCCC)nc(NCCN2CCOCC2)n1 [Compound N18N18D2] | 0.0% | 0.0% |
| CCCCCCCCCCCCCCCCCCSc1nc(NCC2CCN(C)CC2)nc(SCCCCCCCCCCCCCCCCCC)n1 [Compound S18S18D10] | 0.0% | 0.0% |
| CCCCCCCCCCCNc1nc(NCCCCCC)nc(NCCCN2CCOCC2)n1 [Compound N6N11D8] | 0.0% | 0.1% |

| Compound | Absolute DNA transfection efficiency in HEK293 cells [1] | Absolute mRNA transfection efficiency in HEK293 cells [2] |
| --- | --- | --- |
| CCCCCCCCCCCCCCCCCCSc1nc(NCCN(C)C)nc(SCCCCCCCCCCCC)n1 [Compound S12S18D1] | 0.0% | 0.0% |
| CCCCCCCCCCCNc1nc(NCCCCCC)nc(NCCN2CCCC2)n1 [Compound N6N11D3] | 0.3% | 0.9% |
| CCCCCCCCNc1nc(NCCCCCCCC)nc(NCCN2CCCC2)n1 [Compound N8N8D3] | 1.8% | 0.4% |
| CCCCCCCCCNc1nc(NCCCCCC)nc(NCCCN2CCN(C)CC2)n1 [Compound N6N9D9] | 0.0% | 0.0% |
| CCCCCCCCCCCCCCCCNc1nc(NCCCCCC)nc(NCCN(C)C)n1 [Compound N6N16D1] | 0.4% | 0.0% |
| CCCCCCCCCCCCCNc1nc(NCCCN2CCN(C)CC2)nc(N(CCCCCCCCCCCC)CCCCCCCCCCCC)n1 [N13^2N12D9] | 1.7% | 2.3% |
| CCCCCCCCCCCCCCCCNc1nc(NCCCCCCCCCCCCCCC)nc(NCCN2CCOCC2)n1 [Compound N15N16D2] | 0.0% | 0.0% |
| CCCCCCCCCCCCCCCNc1nc(NCCCCCCCCC)nc(NCCCN(C)C)n1 [Compound N9N15D6] | 0.0% | 1.7% |
| CCCCCCCCCCCCCNc1nc(NCCCCCCCCC)nc(NCCN2CCN(C)CC2)n1 [Compound N9N13D5] | 0.3% | 0.2% |
| CCCCCCCCCCCCCCCCCCNc1nc(NCCCCCCCC)nc(NCCN2CCOCC2)n1 [Compound N8N18D2] | 1.7% | 7.0% |
| CCCCCCCCCCCCCCCNc1nc(NCCCCCCCCCCCC)nc(NCCCN2CCOCC2)n1 [Compound N12N15D8] | 1.4% | 0.9% |
| CCCCCCCCCCCCCCCCCCSc1nc(NCCCN(C)C)nc(SCCCCCCCCCCCC)n1 [Compound S12S18D6] | 1.0% | 0.1% |
| CCCCCCCCCCCCCCCCCCSc1nc(NCCCN2CCN(C)CC2)nc(SCCCCCCCCCCCCCCC)n1 [Compound S15S18D9] | 0.3% | 0.0% |
| CCCCCCCCCCCCCCCCNc1nc(NCCCCCCCCC)nc(NCCCN2CCOCC2)n1 [Compound N9N16D8] | 1.8% | 0.0% |
| CCCCCCCCCCCCCCSc1nc(NCCN2CCCC2)nc(SCCCCCCCCCCCCCC)n1 [Compound S14S14D3] | 0.2% | 0.1% |
| CCCCCCCCCCCCNc1nc(NCCCCCCCCCCCC)nc(NCC2CCN(C)CC2)n1 [Compound N12N12D10] | 0.5% | 0.6% |
| CCCCCCCCCCCCCCCSc1nc(NCCN2CCN(C)CC2)nc(SCCCCCCCCCCCC)n1 [Compound S12S15D5] | 0.1% | 1.4% |
| CCCCCCCCCCCCCCCCNc1nc(NCCCCCCCCCCCCC)nc(NCCN2CCN(C)CC2)n1 [Compound N13N16D5] | 0.0% | 0.4% |
| CCCCCCCCNc1nc(NCCCCCCCC)nc(NCCCN2CCOCC2)n1 [Compound N8N8D8] | 0.0% | 0.0% |
| CCCCCCCCCCCCCCCCCCNc1nc(NCCCCCCCCCCCC)nc(NCCN2CCCC2)n1 [Compound N12N18D3] | 3.5% | 13.4% |
| CCCCCCCCCCCNc1nc(NCCCCCCCCC)nc(NCCCN2CCN(C)CC2)n1 [Compound N9N11D9] | 0.0% | 0.7% |
| CCCCCCCCCCCSc1nc(NCCN2CCOCC2)nc(SCCCCCCCCCC)n1 [Compound S10S11D2] | 2.2% | 0.6% |
| CCCCCCCCCCCCCCCCNc1nc(NCCCCCCCCC)nc(NCCN2CCOCC2)n1 [Compound N9N16D2] | 0.0% | 0.7% |
| CCCCCCCCCCCCCCCCNc1nc(NCCCCCCCCCCCC)nc(NCC2CCN(C)CC2)n1 [Compound N12N16D10] | 0.0% | 0.6% |
